Experimental findings from US5288751A, “[(Substituted) phenyalkyl]furylalkynyl-and [substituted) phenyalkyl] thienylalkynyl-N-hydroxyurea inhibitors or leukotriene biosynthesis” (Abbott Laboratories, priority 1992, dated 1994) are described below.

One test has as its system biosynthesis of leukotrienes (peritoneal fluid leukotriene levels). The test can be described thus: Inhibition of leukotriene biosynthesis in vivo, rat peritoneal anaphylaxis model, oral administration. To be noted: single 30 μmol/kg oral dose, gavage one hour prior to antigen challenge, 15 minutes after challenge. The protocol: Inhibition of the biosynthesis of leuktrienes in vivo after oral administration of compound was determined using a rat peritoneal anaphylaxis model in a similar manner as that described by Young and coworkers (Young, P. R.; Dyer, R. D.; Carter, G. W., Fed. Proc., Fed. Am. Soc. Exp. Biol. 1985, 44: 1185). In this model rats were injected intraperitoneally (ip) with rabbit antibody to bovine serum albumin (BSA) and three hours later injected ip with BSA to induce an antigen-antibody response. Rats were sacrificed 15 minutes after this challenge and the peritoneal fluids were collected and analyzed for leukotriene levels. Test compounds were administered by gavage one hour prior to the antigen challenge. Percent inhibition values were determined by comparing the treatment group to the mean of the control group. Compounds of this invention prevent the formation of leukotrienes in this model after oral administration in a range of 1-200 μmol/kg.
`CC(C#Cc1ccc(Cc2ccc(F)cc2)o1)N(O)C(N)=O` (stereo not drawn) [Example 1, N-{3-[5-(4-Fluorophenylmethyl)fur-2-yl]-1-methyl-2-propynyl}-N-hydroxyurea]: the “% inhibition of leukotriene formation in vivo” value is listed as 68%.

Turning to `CC(C#Cc1ccc(Cc2ccc(F)cc2)s1)N(O)C(N)=O` (stereo not drawn) [Example 12, N-{3-[5-(4-Fluorophenylmethyl)-2-thienyl]-1-methyl-2-propynyl}-N-hydroxyurea], the “% inhibition of leukotriene formation in vivo” value turned out to be 72%.

For a further test, the system named is Stimulated LTB4 Formation in Human Whole Blood. The test can be described thus: Calcium ionophore (A23187)-induced LTB4 biosynthesis in human whole blood (in vitro leukotriene biosynthesis inhibition). The test is classed as cell-based. To be noted: human heparinized whole blood; 15 min preincubation at 37° C.; A23187 8.3 μM, 30 minutes. As for the experimental part:
Inhibition of leukotriene biosynthesis was evaluated in an assay, involving calcium ionophore-induced LTB4 biosynthesis expressed human whole blood. Human heparinized whole blood was preincubated with test compounds or vehicle for 15 min at 37° C. followed by calcium ionophore A23187 challenge (final concentration of 8.3 μM) and the reaction terminated after 30 minutes by adding two volumes of methanol containing prostaglandin B2 as an internal recovery standard. The methanol extract was analyzed for LTB4 using a commercially available radioimmunoassay.
In Vitro Inhibitory Potencies Against Stimulated LTB4 Formation
As usually defined, the IC50 is the concentration that inhibits the measured activity by half. Turning to `CC(C#Cc1ccc(Cc2ccc(F)cc2)o1)N(O)C(N)=O` (stereo not drawn) [Example 1, N-{3-[5-(4-Fluorophenylmethyl)fur-2-yl]-1-methyl-2-propynyl}-N-hydroxyurea], the IC50 worked out at 60 nM.

With `CC(C#Cc1ccc(/C=C/c2ccc(F)cc2)o1)N(O)C(N)=O` (stereo not drawn) [Example 5, N-[4-(5-{2-[4-Fluorophenyl]ethenyl}fur-2-yl)-1-methyl-2-propynyl]-N-hydroxyurea], the IC50 came to 620 nM.

In the case of `CC(C#Cc1ccc(/C=C/c2ccccn2)o1)N(O)C(N)=O` (stereo not drawn) [Example 7, N-Hydroxy-N-[4-(5-{2-[2-pyridyl]ethenyl}fur-2-yl)-1-methyl-2-propynyl]urea], the IC50 was determined as 350 nM.

For `Cc1ccc(/C=C/c2ccc(C#CC(C)N(O)C(N)=O)o2)cc1` (stereo not drawn) [Example 9, N-Hydroxy-N-[4-(5-{2-[5-methylphenyl]ethenyl}fur-2-yl)-1-methyl-2-propynyl]urea], the IC50 was determined as 300 nM.

As to `CC(C#Cc1ccc(Cc2ccc(F)cc2)s1)N(O)C(N)=O` (stereo not drawn) [Example 12, N-{3-[5-(4-Fluorophenylmethyl)-2-thienyl]-1-methyl-2-propynyl}-N-hydroxyurea], the IC50 worked out at 70 nM.

Take `C[C@H](C#Cc1ccc(Cc2ccc(F)cc2)s1)N(O)C(N)=O` [Example 13, (R)-N-{3-[5-(4-Fluorophenylmethyl)-2-thienyl]-1-methyl-2-propynyl}-N-hydroxyurea]: the IC50 was 70 nM.

The test is the same for the next values; noted with them: human heparinized whole blood; A23187 8.3 μM, 30 minutes; test concentration not stated.
`CC(C#Cc1ccc(C(=O)c2ccc(F)cc2)o1)N(O)C(N)=O` (stereo not drawn) [Example 2]: the “% inhibition of stimulated LTB4 formation in human whole blood” value (shortened to “% inhibition … in human whole blood”) came to 72%.

Turning to `CC(C#Cc1ccc(/C=C/c2cccnc2)o1)N(O)C(N)=O` (stereo not drawn) [Example 4, N-Hydroxy-N-[4-(5-{2-[3-pyridyl]ethenyl}fur-2-yl)-1-methyl-2-propynyl]urea], the “% inhibition … in human whole blood” value is recorded as 39%.

On to `CC(C#Cc1ccc(/C=C/c2ccccc2)o1)N(O)C(N)=O` (stereo not drawn) [Example 6, N-Hydroxy-N-[4-(5-{2-phenylethenyl}fur-2-yl)-1-methyl-2-propynyl]urea], for which the “% inhibition … in human whole blood” value was determined as 40%.

As to `CC(C#Cc1ccc(/C=C/c2ccc(F)cc2)s1)N(O)C(N)=O` (stereo not drawn) [Example 8], the “% inhibition … in human whole blood” value is given as 62%.
